Results published in patent US20240209028A1, “CNP COMPOUNDS” (priority 2022, published 2024).
Converted amounts (≈) assume the structure as drawn. Starred links: 1 amine or outer side, 2 acyl side, 3 side chain; linkers in the order of their positions; H or OH if unused. Positions of bridges follow the written chain, without caps; N, C: chain ends. Residues, ends and D or L forms follow the SMILES beside them. *: point of attachment. C20 diacid = O=C(O)CCCCCCCCCCCCCCCCCCC(=O)*; C18 diacid = O=C(O)CCCCCCCCCCCCCCCCC(=O)*; γGlu = O=C(O)[C@H](CCC(=O)[*:2])N[*:1]; AEEA = NCCOCCOCC(=O)O

Key:
[1] = PK of CNP compounds after i.v. and s.c. administration to rats; conditions: male, Sprague Dawley, in vivo, iv, rat, i.v., about 100 nmol/kg
Protocol: In order to assess the i.v. and s.c. PK/PD profile of CNP compounds of the present invention, formulations of CNP compounds were administered to rats, blood samples taken and exposure and cGMP response measured.
Quantitative plasma analysis of CNP-compounds: Plasma concentrations of CNP compounds were assayed by plasma protein precipitation and analysed by turboflow liquid chromatography mass spectrometry (TF-LC-MS). Calibrators were prepared by spiking either blank rat or minipig plasma with the relevant CNP compound in the range from 0.5 to 2000 nM. Calibrators, plasma blanks or study samples were prepared for TF-LC-MS by protein precipitation by adding three or four volumes of either ethanol or methanol containing 20 nM of internal standard to one volume of sample. For some compounds, formic acid was added to the precipitation reagent (the final concentration was 1% v/v). After the addition of the precipitation reagent, the mixture was centrifuged at 6200 rpm at 4° C. for 30 minutes. After centrifugation, one volume of supernatant was mixed with two volumes of water (with 1% v/v formic acid). The mixture was analysed by TF-LC-MS using a Cyclone turboflow column (0.5×50 mm, ThermoFisher Scientific) and either a XBridge Protein BEH C4 3.5 μm 300 Åor a XBridge Protein BEH C18 3.5 μm 130 Åanalytical column (both were 50×2.1 mm and obtained from Waters). […] The mass spectrometer was operated in positive ionisation mode. A TSQ Altis mass spectrometer (ThermoFisher Scientific) was used as detector in selected reaction monitoring mode (specific transition were optimised for each CNP compound). Linear calibration curves (weighed 1/×2) were used for calculating the concentration in the plasma samples. Quality control samples were included. The deviation between nominal and calculated concentration in the calibrators and quality control samples were below 15%.
Animals and dosing: Groups of 4-6 rats (male, Sprague Dawley, 350 g at arrival, Janvier, France) per compound and route of administration were dosed with a CNP compound formulated either in A) 8 mM sodium phosphate, 250 mM glycerol, 0.007% polysorbate 20, pH 7.4 or B) 5 mM sodium acetate, 250 mM glycerol, 0.007% polysorbate 20, pH 4.0 depending on the respective compound. S.c. dose was 300 nmol/kg, at a concentration of […] resulting in a dosing volume of 0.3 mL/kg, whereas i.v. dose was 100 nmol/kg, at a concentration of […] resulting in a dosing volume of 1 mL/kg.
Sampling: Sublingual blood samples of 250 uL were collected from unanaesthetised rats in EDTA-coated vials (Microvette 600K3E ref #15.1673.100 Sarstedt) at baseline (-1 h before dosing) as well as 5 min (only i.v. dosed groups), 2 h, 6 h, 24 h, 48 h and 72 h (only for exposure analysis) post-dosing. The blood samples were quickly stored on ice and centrifuged (4° C., 8000 RPM, 5 min) within 10 min of collection. Plasma samples of 50 μL were transferred to each micronic tube for either exposure or cGMP analysis, kept on dry ice and stored in a freezer (−20° C.). Rats had access to food (Altromin) and tap water ad libitum.
Analysis: PK parameters were calculated by non-compartment analysis (NCA) using software Phoenix WinNonlin (ver. 8.1 or later, Certara) for each animal. Clearance (Cl) was calculated as: Dose/AUCinf (linear up, log down). […] Bioavailability was calculated as dose normalized AUC's: (AUC(sc)/Dose(sc))/(AUC(iv)/Dose(iv)). Values in the table are means from individual animals (n=4-6 individual animals). The subsequent plots for cGMP plasma concentration versus time are (Y-axis) mean cGMP concentration (n=4-6 individual animals) after IV dosing and (X-axis) nominal plasma sampling time.
Plasma cGMP are reported as the mean.

[2] = target: T1, human natriuretic peptide receptor 2 (hNPR2) (Homo sapiens, UniProt P20594); assay: In vitro hNPR2 activity assay (cGMP GloSensor reporter, HEK293); format: cell-based; conditions: potency relative to CNP22 (0065)
T1 construct: expressed in transfected cells; host or cells: HEK293 (ATCC CRL-1573), clone 35, co-transfected with pGloSensor-42F
T1 sequence (P20594 23-1047): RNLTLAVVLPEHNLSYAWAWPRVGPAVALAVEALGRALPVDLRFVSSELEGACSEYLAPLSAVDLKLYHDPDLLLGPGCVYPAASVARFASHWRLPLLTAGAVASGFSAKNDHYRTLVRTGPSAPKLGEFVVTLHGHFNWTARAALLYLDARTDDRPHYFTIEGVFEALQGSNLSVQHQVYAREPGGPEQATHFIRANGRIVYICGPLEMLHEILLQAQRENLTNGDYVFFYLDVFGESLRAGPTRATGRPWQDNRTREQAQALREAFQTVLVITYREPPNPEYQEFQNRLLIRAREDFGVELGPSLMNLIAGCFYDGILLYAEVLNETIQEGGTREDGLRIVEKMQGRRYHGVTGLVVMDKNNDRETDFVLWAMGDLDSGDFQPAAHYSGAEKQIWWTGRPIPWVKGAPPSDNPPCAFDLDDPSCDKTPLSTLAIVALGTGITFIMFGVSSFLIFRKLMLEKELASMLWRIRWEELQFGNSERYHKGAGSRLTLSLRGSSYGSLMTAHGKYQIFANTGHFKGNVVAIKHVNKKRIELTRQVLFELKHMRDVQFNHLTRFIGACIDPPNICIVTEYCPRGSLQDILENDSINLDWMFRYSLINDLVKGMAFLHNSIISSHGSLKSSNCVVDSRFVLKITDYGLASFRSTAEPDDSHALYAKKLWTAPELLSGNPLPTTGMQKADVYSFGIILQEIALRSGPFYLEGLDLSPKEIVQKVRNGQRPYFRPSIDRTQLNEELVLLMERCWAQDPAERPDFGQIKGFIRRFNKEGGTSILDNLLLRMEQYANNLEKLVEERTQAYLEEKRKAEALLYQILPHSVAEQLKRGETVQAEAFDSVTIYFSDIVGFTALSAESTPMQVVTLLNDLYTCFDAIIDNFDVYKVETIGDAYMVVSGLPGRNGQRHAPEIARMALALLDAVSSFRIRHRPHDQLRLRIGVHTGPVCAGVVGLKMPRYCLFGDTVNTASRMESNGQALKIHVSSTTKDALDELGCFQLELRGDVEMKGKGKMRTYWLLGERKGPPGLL
Method in brief: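 Potency is the EC50 from a four-parameter logistic fit, also expressed relative to the in-plate CNP22 control (×100), with at least two replicates. Compounds (ten concentrations, […], HSA-free diluent with 1% OVA, 0.01% Tween20) were incubated 30 min at 37 °C on HEK293 cells co-expressing hNPR2 and a GloSensor cGMP luciferase. Luminescence detected with Bright-Glo.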

[3] = Solubility of CNP compounds at pH 4.0 and pH 6.5; format: physicochemical; conditions: 8 mM sodium phosphate, 23 mg/mL glycerol, pH 6.5, room temperature; read-out: Solubility at pH 6.5
Protocol: In order to assess the suitability of CNP compounds for a soluble liquid formulation, the solubility of CNP compounds in pharmaceutically relevant buffers were measured. Solubility at two different pH-levels (pH 4.0 and pH 6.5) was examined as pH is expected to affect solubility.
Preparation of pH 4.0 samples: The pH 4.0 samples of the CNP compounds were prepared by mixing freeze dried peptide with a pH 4.0 5 mM sodium acetate, 250 mM glycerol buffer at room temperature to a nominal concentration of at least 4000-5000 nmol/mL. The pH of the samples was measured and adjusted to pH 4.0 and the samples were allowed to equilibrate at room temperature until next day if not fully dissolved.
Preparation of pH 6.5 samples: The pH 6.5 samples of the CNP compounds were prepared by dissolving the freeze dried peptide in water. While stirring, a part of the peptide solution was transferred to a buffer consisting of 41 mM sodium phosphate and 118 mg/mL glycerol, pH 7.5-8.0, followed by addition of diluted sodium hydroxide followed by another part of the peptide solution and further addition of diluted sodium hydroxide. This procedure was repeated until all of the peptide solution had been added where a nominal concentration of at least 4000-5000 nmol/mL had been reached and the buffer composition was 8 mM sodium phosphate, 23 mg/mL glycerol. The pH of the samples were measured and adjusted to pH 6.5 and the samples were allowed to equilibrate at room temperature until next day if not fully dissolved.
Procedure: Samples at pH 4.0 were prepared as described above and the compound concentration in the supernatant was determined using CAD (Method F, CAD02).
Samples at pH 6.5 were prepared as described above and peptide concentration in the supernatant was determined by CAD (Method F, CAD02).

| Compound | clearance ([1]; read-out: Cl (L/hr/kg), i.v. administration (converted)) | half-life ([1]; read-out: T½ (hr), i.v. administration (converted)) | hNPR2 0% HSA. [EC50% rel CNP] [2] | solubility [3] |
| --- | --- | --- | --- | --- |
| CC[C@H](C)[C@@H]1NC(=O)[C@H](CCCNC(=N)N)NC(=O)[C@H](CC(=O)O)NC(=O)[C@H](CC(C)C)NC(=O)[C@@H]2CCCN2C(=O)[C@H](CC(C)C)NC(=O)CNC(=O)[C@H](Cc2ccccc2)NC(=O)[C@@H](NC(=O)CNC(=O)[C@H](CCCCN)NC(=O)[C@H](CO)NC(=O)[C@H](CC(C)C)NC(=O)CNC(=O)[C@H](CCCCN)NC(=O)[C@H](CCCCN)NC(=O)[C@H](CCC(N)=O)NC(=O)[C@H](C)NC(=O)CNC(=O)[C@H](CCC(=O)O)NC(=O)[C@H](Cc2ccc(O)cc2)NC(=O)COCCOCCNC(=O)COCCOCCNC(=O)CC[C@H](NC(=O)CCCCCCCCCCCCCCCCCCC(=O)O)C(=O)O)CSSC[C@@H](C(=O)O)NC(=O)CNC(=O)[C@H](CC(C)C)NC(=O)CNC(=O)[C@H](CO)NC(=O)[C@H](CC(C)C)NC(=O)[C@H](CO)NC(=O)CNC1=O [compound 1376] ({C20 diacid-γGlu-AEEA-AEEA}-YEGAQKKGLSKGCFGLPLDRIGSLSGLGC-OH; disulfide 13-29) | 0.00418 L/h/kg | 9.55 h |  |  |
| CC[C@H](C)[C@@H]1NC(=O)[C@H](CCCNC(=N)N)NC(=O)[C@H](CC(=O)O)NC(=O)[C@H](CC(C)C)NC(=O)[C@@H]2CCCN2C(=O)[C@H](CC(C)C)NC(=O)CNC(=O)[C@H](Cc2ccccc2)NC(=O)[C@@H](NC(=O)CNC(=O)[C@H](CO)NC(=O)[C@H](CO)NC(=O)[C@@H](NC(=O)CNC(=O)[C@@H](NC(=O)[C@H](Cc2c[nH]cn2)NC(=O)[C@H](CCC(N)=O)NC(=O)[C@H](C)NC(=O)CNC(=O)[C@H](Cc2c[nH]cn2)NC(=O)[C@H](Cc2ccc(O)cc2)NC(=O)[C@H](CCCCN)NC(=O)[C@H](CCCNC(=N)N)NC(=O)[C@H](C)NC(=O)COCCOCCNC(=O)COCCOCCNC(=O)CC[C@H](NC(=O)CC[C@H](NC(=O)CCCCCCCCCCCCCCCCC(=O)O)C(=O)O)C(=O)O)[C@@H](C)O)C(C)C)CSSC[C@@H](C(=O)O)NC(=O)CNC(=O)[C@H](CC(C)C)NC(=O)CNC(=O)[C@H](CO)NC(=O)[C@H](CC(C)C)NC(=O)[C@H](CO)NC(=O)CNC1=O [compound 1419] ({C18 diacid-γGlu-γGlu-AEEA-AEEA}-ARKYHGAQHTGVSSGCFGLPLDRIGSLSGLGC-OH; disulfide 16-32) |  |  | 37.2% | 318 µM (≈ 1300 µg/mL) |
| CC[C@H](C)[C@@H]1NC(=O)[C@H](CCCNC(=N)N)NC(=O)[C@H](CC(=O)O)NC(=O)[C@H](CC(C)C)NC(=O)[C@@H]2CCCN2C(=O)[C@H](CC(C)C)NC(=O)CNC(=O)[C@H](Cc2ccccc2)NC(=O)[C@@H](NC(=O)CNC(=O)[C@H](CO)NC(=O)[C@H](CO)NC(=O)[C@@H](NC(=O)CNC(=O)[C@@H](NC(=O)[C@H](CCCCN)NC(=O)[C@H](CCC(N)=O)NC(=O)[C@H](C)NC(=O)CNC(=O)[C@H](CCCCN)NC(=O)[C@H](Cc2ccc(O)cc2)NC(=O)[C@H](CCCCN)NC(=O)[C@H](CCCNC(=N)N)NC(=O)[C@H](C)NC(=O)COCCOCCNC(=O)COCCOCCNC(=O)CC[C@H](NC(=O)CC[C@H](NC(=O)CC[C@H](NC(=O)CCCCCCCCCCCCCCCCC(=O)O)C(=O)O)C(=O)O)C(=O)O)[C@@H](C)O)C(C)C)CSSC[C@@H](C(=O)O)NC(=O)CNC(=O)[C@H](CC(C)C)NC(=O)CNC(=O)[C@H](CO)NC(=O)[C@H](CC(C)C)NC(=O)[C@H](CO)NC(=O)CNC1=O [compound 1421] ({C18 diacid-γGlu-γGlu-γGlu-AEEA-AEEA}-ARKYKGAQKTGVSSGCFGLPLDRIGSLSGLGC-OH; disulfide 16-32) |  |  | 50.0% | 857 µM (≈ 3600 µg/mL) |
